Results: ChEMBL document CHEMBL3396957, “Heteroatom insertion into 3,4-dihydro-1H-quinolin-2-ones leads to potent and selective inhibitors of human and rat aldosterone synthase” (Eur J Med Chem, 2015)
pIC50: −log10 of the molar value.

Key:
[1] = molecular target: T1, Cytochrome P450 11B2, mitochondrial (Homo sapiens, UniProt P19099); assay: Inhibition of CYP11B2 […] cells using [3H]-11-deoxycorticosterone as substrate incubated for 1 hr prior to substrate addition measured after 45 mins by HPLC analysis; assay type: cell-based
T1 sequence (P19099 whole entry): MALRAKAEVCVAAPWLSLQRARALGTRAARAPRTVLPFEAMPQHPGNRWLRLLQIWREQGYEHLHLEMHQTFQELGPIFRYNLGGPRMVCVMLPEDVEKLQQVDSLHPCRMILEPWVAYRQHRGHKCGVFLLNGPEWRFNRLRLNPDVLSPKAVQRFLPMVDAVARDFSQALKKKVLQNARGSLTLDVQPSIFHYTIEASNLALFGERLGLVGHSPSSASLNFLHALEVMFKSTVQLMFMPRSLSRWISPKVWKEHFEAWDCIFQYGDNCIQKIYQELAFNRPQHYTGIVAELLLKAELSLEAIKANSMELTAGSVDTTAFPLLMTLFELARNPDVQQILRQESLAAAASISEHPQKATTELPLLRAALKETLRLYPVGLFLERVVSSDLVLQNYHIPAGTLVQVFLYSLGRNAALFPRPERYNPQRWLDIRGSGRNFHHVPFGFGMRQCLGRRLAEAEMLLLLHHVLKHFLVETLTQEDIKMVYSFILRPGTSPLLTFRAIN

[2] = molecular target: T1, Cytochrome P450 11B2, mitochondrial; assay: Inhibition of CYP11B2 […] cells using [3H]-11-deoxycorticosterone as substrate at 500 nM incubated for 1 hr prior to substrate addition measured after 45 mins by HPLC analysis; assay type: cell-based; conditions: 0.75 h
[3] = molecular target: T2, CYP19 (aromatase) (Homo sapiens, UniProt P11511); assay: Inhibition of human recombinant CYP19 using [1beta-3H]androstenedione as substrate at 500 nM; conditions: recombinant CYP19, probe [1beta-3H]androstenedione
T2 sequence (P11511 whole entry): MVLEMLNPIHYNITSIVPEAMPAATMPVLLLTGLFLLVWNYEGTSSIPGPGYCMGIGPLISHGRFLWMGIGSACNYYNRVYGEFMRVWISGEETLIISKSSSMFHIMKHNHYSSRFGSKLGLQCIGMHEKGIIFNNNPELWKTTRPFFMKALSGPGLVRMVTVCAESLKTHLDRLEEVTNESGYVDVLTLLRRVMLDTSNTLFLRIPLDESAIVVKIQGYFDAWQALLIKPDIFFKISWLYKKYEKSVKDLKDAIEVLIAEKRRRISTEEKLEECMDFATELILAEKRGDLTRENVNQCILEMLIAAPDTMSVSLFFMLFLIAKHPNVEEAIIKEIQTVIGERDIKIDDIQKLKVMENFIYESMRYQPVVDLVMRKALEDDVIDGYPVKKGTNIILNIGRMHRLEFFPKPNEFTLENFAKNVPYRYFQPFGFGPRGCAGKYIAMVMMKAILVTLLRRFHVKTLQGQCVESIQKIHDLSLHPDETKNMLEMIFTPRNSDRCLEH

[4] = molecular target: T3, Cytochrome P450 11B1, mitochondrial (Homo sapiens, UniProt P15538); assay: (§1) Inhibition of CYP11B1 […] cells using [3H]-11-deoxycorticosterone as substrate incubated for 1 hr prior to substrate addition measured after 25 mins by HPLC analysis; assay type: cell-based
T3 sequence (P15538 whole entry): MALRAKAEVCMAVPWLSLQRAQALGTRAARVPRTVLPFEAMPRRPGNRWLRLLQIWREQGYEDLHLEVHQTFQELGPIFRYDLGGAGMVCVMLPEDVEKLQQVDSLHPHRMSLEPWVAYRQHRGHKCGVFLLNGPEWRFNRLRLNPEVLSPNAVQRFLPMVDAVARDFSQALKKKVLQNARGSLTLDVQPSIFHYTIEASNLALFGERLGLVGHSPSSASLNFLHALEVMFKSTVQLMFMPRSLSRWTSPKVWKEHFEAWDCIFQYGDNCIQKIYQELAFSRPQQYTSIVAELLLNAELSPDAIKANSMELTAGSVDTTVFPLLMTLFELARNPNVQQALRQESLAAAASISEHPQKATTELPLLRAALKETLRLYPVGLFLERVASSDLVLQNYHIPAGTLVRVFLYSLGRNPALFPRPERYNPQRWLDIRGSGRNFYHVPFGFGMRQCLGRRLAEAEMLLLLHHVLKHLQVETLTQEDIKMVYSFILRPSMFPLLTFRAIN

[5] = molecular target: T4, CYP17 (Homo sapiens, UniProt P05093); assay: Inhibition of human recombinant CYP17 expressed in Escherichia coli using progesterone as substrate at 2 uM; conditions: probe progesterone
T4 sequence (P05093 whole entry): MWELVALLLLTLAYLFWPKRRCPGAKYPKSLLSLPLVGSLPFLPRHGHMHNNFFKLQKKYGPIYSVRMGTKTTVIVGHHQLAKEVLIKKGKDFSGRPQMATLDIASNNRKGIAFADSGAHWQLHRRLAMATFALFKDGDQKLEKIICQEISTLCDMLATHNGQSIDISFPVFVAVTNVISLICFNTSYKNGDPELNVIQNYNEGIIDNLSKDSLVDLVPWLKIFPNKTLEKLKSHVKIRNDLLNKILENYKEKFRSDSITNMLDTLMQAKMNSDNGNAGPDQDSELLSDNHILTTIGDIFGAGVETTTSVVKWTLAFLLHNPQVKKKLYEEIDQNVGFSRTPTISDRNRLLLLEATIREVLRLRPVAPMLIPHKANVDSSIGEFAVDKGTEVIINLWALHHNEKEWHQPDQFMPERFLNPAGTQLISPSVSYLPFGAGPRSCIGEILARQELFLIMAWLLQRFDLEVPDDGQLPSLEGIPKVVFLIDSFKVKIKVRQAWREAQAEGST

[6] = molecular target: T5, CYP11B1 (Homo sapiens, UniProt P15538); assay: as §1; assay type: cell-based; conditions: human, V79MZ cells expressing CYP11B1, probe [3H]-11-deoxycorticosterone
T5 sequence (P15538 whole entry): T3 sequence (P15538 whole entry)

[7] = molecular target: T6, Cytochrome P450 11B2, mitochondrial (Rattus norvegicus, UniProt P30099); assay: Inhibition of rat CYP11B2 using [3H]-11-deoxycorticosterone as substrate at 2 uM incubated for 1 hr prior to substrate addition measured after 7 hrs by HPLC analysis
T6 sequence (P30099 whole entry): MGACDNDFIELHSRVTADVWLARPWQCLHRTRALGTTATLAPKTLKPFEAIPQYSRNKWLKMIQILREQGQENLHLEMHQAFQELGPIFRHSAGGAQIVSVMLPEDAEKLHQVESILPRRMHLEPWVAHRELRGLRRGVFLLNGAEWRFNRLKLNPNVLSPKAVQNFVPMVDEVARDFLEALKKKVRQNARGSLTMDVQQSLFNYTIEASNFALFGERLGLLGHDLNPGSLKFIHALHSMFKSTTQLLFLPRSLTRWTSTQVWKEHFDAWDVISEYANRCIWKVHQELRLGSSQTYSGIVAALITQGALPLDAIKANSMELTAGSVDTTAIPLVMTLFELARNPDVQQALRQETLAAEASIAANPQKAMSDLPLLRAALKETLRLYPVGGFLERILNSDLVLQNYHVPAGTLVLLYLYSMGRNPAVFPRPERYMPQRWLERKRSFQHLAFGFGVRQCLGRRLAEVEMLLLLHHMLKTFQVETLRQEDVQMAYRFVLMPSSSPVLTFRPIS

[8] = molecular target: T6, Cytochrome P450 11B2, mitochondrial; assay: Inhibition of rat CYP11B2 using [3H]-11-deoxycorticosterone as substrate at 0.5 uM incubated for 1 hr prior to substrate addition measured after 7 hrs by HPLC analysis; conditions: read-out: INH

| Compound | pIC50 [1] | inhibition at 0.5 µM [2] | inhibition at 0.5 µM [3] | pIC50 [4] | inhibition at 2 µM [5] | IC50 at 25 min [6] | inhibition at 2 µM [7] | inhibition at 0.5 µM [8] |
| --- | --- | --- | --- | --- | --- | --- | --- | --- |
| O=C1NCc2cc(-c3cccnc3)ccc2N1 | 6.64 | 72% |  | 6.92 |  |  |  |  |
| N#Cc1ccc(C2CCCc3cncn32)cc1 (stereo unspecified) [FADROZOLE] |  |  |  |  |  |  |  | 67% |

Now from value to compound:

| pIC50 [1] | inhibition at 0.5 µM [2] | inhibition at 0.5 µM [3] | pIC50 [4] | inhibition at 2 µM [5] | IC50 at 25 min [6] | inhibition at 2 µM [7] | inhibition at 0.5 µM [8] | Compound |
| --- | --- | --- | --- | --- | --- | --- | --- | --- |
| 7.96 | 98% | 20% | 6.11 | < 10% |  |  |  | CN1C(=O)COc2cc(-c3cccnc3)ccc21 |
| 7.92 |  |  |  |  | 525 nM |  |  | O=C1CSc2cc(-c3cccnc3)ccc2N1 |
| 7.55 |  | 31% |  | 20% | 6750 nM | < 5% |  | O=C1CCc2cc(-c3cccnc3)ccc2N1 |
